The test system of test [1] is ROS 17/2.8 osteoblast-like cells. The test is described as follows: CK specific activity in ROS 17/2.8 osteoblast-like cells. The format is cell-based, rat. The settings on record: 40 nM; control 698 ± 70 nmol/min per mg of protein.
The test system is the same in test [2]. As to the kind of experiment: Cyclic AMP production in ROS 17/2.8 osteoblast-like cells. In kind it is cell-based, rat. As for the experimental part:
When cultures of the widely used model for osteoblasts, the osteoblast-likeclone of rat osteosarcoma, ROS 17/2.8 (Endocrinology (Baltimore), 107 (1980) 1494-1503=12; Majeska et al.), were incubated with full-length PTH and PTH fragments (Table 4), cyclic AMP production was stimulated only by bPTH(1-84) and hPTH(1-34), whereas hPTH(25-39), hPTH(27-48), hPTH(28-48) and hPTH(34-47) were ineffective.

Test [3] deals with osteoblast enriched rat embryo calvaria cell cultures. As to the kind of experiment: CK specific activity in rat embryo calvaria cell cultures. The format is cell-based. The conditions noted are these: treated for 24 h. As for the experimental part:
(§1) FIG. 10 is a graphical representation showing the dose dependent stimulation by bPTH (1-84) of osteoblast enriched rat embryo calvaria cell cultures. Experimental details for the determination of cyclic AMP (.quadrature.) (15 min after stimulation) and incorporation of [^3 H]thymidine into DNA ( ) and CK ( ) specific activity (24 h after stimulation) are given below. The results are means ±S.E.M., N≥5. In several cases the S.E.M. was less than the size of the symbol. Control values were: cyclic AMP, 25±5 pmol/mg of protein; DNA, 240±30 c.p.m./μg of DNA; CK, 200±20 nmol/min per mg of protein. Statistical significance of differences between treated and corresponding control groups by Student's T test: *P<0.05; **P<0.01.
(§2) Rat calvaria cultures were treated with fragments of PTH derived from the central portion of the molecule.

Test [4] concerns ROS 17/2.8 osteoblast-like cells. The test is described as follows: DNA synthesis in ROS 17/2.8 osteoblast-like cells. The settings on record: 40 nM; control 392 ± 58 c.p.m./μg of DNA. In kind it is cell-based, rat.
For test [5], the system named is rat organs (epiphysis, diaphysis, kidney). As to the kind of experiment: [3H]thymidine incorporation into DNA in rat organs after i.p. injection. The conditions noted are these: 2 μg/rat; 24 h. In kind it is in vivo. A general note: Dividing cells build labelled thymidine or BrdU into new DNA.
The test system of test [6] is osteoblast enriched rat embryo calvaria cell cultures. As to the kind of experiment: DNA synthesis ([3H]thymidine incorporation) in rat embryo calvaria cell cultures. In kind it is cell-based. As for the experimental part: as §1
Test [7] deals with rat organs (epiphysis, diaphysis, kidney). The test is described as follows: [3H]thymidine incorporation into DNA in rat organs after i.p. injection. The settings on record: 2 μg/rat. In kind it is in vivo. As for the experimental part:
FIG. 12 is a graph showing the time course of stimulation by hPTH (1-34) of DNA synthesis in rat organs. Female rats (20-25 days old) were injected i.p. with hPTH-(1-34) (2 μg/rat). At 2 h before the times indicated, the rats were killed and organs were removed and incubated in 2 ml of Dulbecco's modified Eagle's medium containing 5 μl of [^3 H]thymidine. (Amersham: 5 Ci/mmol) for 2 h, then washed with medium and homogenized in deionized distilled water. The total uptake of [^3 H]thymidine and acid-insoluble radioactivity was measured, as well as DNA content, as described below. , Diaphysis; O, epiphysis; Δ; kidney. P<0.01 versus controls.
The pieces were then incubated for 2 h more (the time indicated in FIG. 12) with [^3 H]thymidine (5 μci/ml; 5 Ci/mmol) at 37° C. in Dulbecco's modified Eagle's medium under an atmosphere Of […] /95% air. Total [^3 H]thymidine uptake and incorporation into trichloroacetic acid-insoluble material was measured as described in Biochem. J., 214 (1983) 293-298 (16; Somjen et al.). At no time including the 22 24 h pulse, was there any significant change in the total uptake of [^3 H]thymidine which reflects changes in the thymidine pool which, in turn, could account for changes in incorporation. DNA was determined by the Burton method; cf. Biochem. J., 62 (1956) 315-323 (17; Burton).
To corroborate that under the circumstances of these experiments the increase in CK specific activity in bone is indeed a valid marker of cell proliferation, changes in DNA synthesis were measured by [^3 H]thymidine incorporation; cf. Biochem. J., 272 (1990) 781-785 (18; Somjen et al.). The earliest time at which PTH increased [^3 H]thymidine incorporation was determined by in-jecting rats with an optimal dose of 2 μp of PTH(1-34)/rat, equivalent to 13 nM (FIG. 14) and measuring 2 h pulses of [^3 H)thymidine incorporation into DNA (FIG. 12).

The test system is the same in test [8]. The test is described as follows: CK specific activity in rat organs after i.p. injection. The format is in vivo. The settings on record: i.p., 4 h later. As for the experimental part:
FIG. 13 is a graph showing the time-dependent stimulation by hPTH (28-48) of CK specific activity in rat organs. Female rats (20-25 days old) were injected i.p. with hPTH-(28-48) (1.25 μg/rat). Experimental details are as described for FIG. 10. (a) Diaphysis, (b) epiphysis, (c) kidney. *P<0.05, **P<0.01 versus controls.
FIG. 14 is a graph showing the dose-dependent stimulation of CK specific activity by hPTH (1-34) in rat organs. Female rats (20-25 days old) were injected i.p. with hPTH-(1-34). At 4 h later, rats were killed and extracts were prepared and assayed as described below. Experimental details are as described for FIG. 10 (a) Diaphysis, (b) epiphysis, (c) kidney. *P<0.05, ** P<0.01 versus controls.
FIG. 15 is a graph showing the dose-dependent stimulation of CK specific activity by hPTH (28-48) in rat organs. Female rats (20-25 days old) were injected i.p. with hPTH-(28-48). Experimental details are as described for FIG. 13 (a) Diaphysis, (b) epiphysis, (c) kidney. *P<0.05, **P<0.01 versus controls.
FIG. 16 is a graph showing the […] stimulation by bPTH (1-84) of CK specific activity in rat organs. Female rats (20-25 days old) were injected i.p. with bPTH-(1-84) (3.5 μg/rat). At the times indicated, the rats were killed and the diaphyses (a) and epiphyses (b) of long bones as well as the kidneys (c) were collected and homogenized. Extracts were prepared and assayed as described below. Results are means ±S.E.M for π=5. Statistical significance of differences between treated and control groups by Student's T test: *P<0.05; **P<0.01. Note that the activity scales differ for different organs.
Kidneys, tibia and femur were excised; the epiphyses or diaphyses of the long bones were collected and washed thoroughly with cold 0.9% NaCl. The bones were split open lengthwise and the marrow was scraped out. Organs were homogenized in ice-cold buffer containing 50 mM-Tris/HCl (pH 6.8), 5 mH-magnesium acetate. 2.5 mM-dithiothreitol, 0.4 mM-EDTA and 250 mM-sucrose using a Polytron homogenizer in 10 s bursts with intervening cooling periods. Supernatant extracts were obtained by centrifugation at 12000 g for 5 min at 4° C. CK activity was measured at 30° C. in a Gilford 250 automatic recording spectrophotometer at 340 nm using a coupled assay for ATP, in 0.5 ml of incubation mixture containing 50 mM-imidazole acetate buffer (pH 6.7), 25 mM-phosphocreatine, 20 mM-N-acetylcysteine, 20 mM-D-glucose, 10 mM-magnesium acetate, 5 mM-EDTA, 2 mM-ADP, 2 mM-NAD+, 2 mM-dithiothreitol, 50 μM-diadenosine pentaphosphate (adenylate kinase inhibitor), 5 μg of bovine serum albumin. 1.2 units of glucose-6-phosphate dehydrogenase and 0.8 units of hexokinase. Protein was determined by the Coomassie Brilliant Blue dye-binding method, with bovine serum albumin as the standard.

For test [9], the system named is osteoblast enriched rat embryo calvaria cell cultures. As to the kind of experiment: Cyclic AMP production in rat embryo calvaria cell cultures. In kind it is cell-based. The conditions noted are these: treated for 15 min. As for the experimental part:
as §1, §2

Take `CC[C@H](C)[C@H](NC(=O)[C@H](CCC(=O)O)NC(=O)[C@H](CO)NC(=O)[C@@H](NC(=O)[C@@H](N)CO)C(C)C)C(=O)N[C@@H](CCC(N)=O)C(=O)N[C@@H](CC(C)C)C(=O)N[C@@H](CCSC)C(=O)N[C@@H](Cc1c[nH]cn1)C(=O)N[C@@H](CC(N)=O)C(=O)N[C@@H](CC(C)C)C(=O)NCC(=O)N[C@@H](CCCCN)C(=O)N[C@@H](Cc1c[nH]cn1)C(=O)N[C@@H](CC(C)C)C(=O)N[C@@H](CC(N)=O)C(=O)N[C@@H](CO)C(=O)N[C@@H](CCSC)C(=O)N[C@@H](CCC(=O)O)C(=O)N[C@@H](CCCNC(=N)N)C(=O)N[C@H](C(=O)N[C@@H](CCC(=O)O)C(=O)N[C@@H](Cc1c[nH]c2ccccc12)C(=O)N[C@@H](CC(C)C)C(=O)N[C@@H](CCCNC(=N)N)C(=O)N[C@@H](CCCCN)C(=O)N[C@@H](CCCCN)C(=O)N[C@@H](CC(C)C)C(=O)N[C@@H](CCC(N)=O)C(=O)N[C@@H](CC(=O)O)C(=O)N[C@H](C(=O)N[C@@H](Cc1c[nH]cn1)C(=O)N[C@@H](CC(N)=O)C(=O)N[C@@H](Cc1ccccc1)C(=O)O)C(C)C)C(C)C` [hPTH(1-34)]: the “CK specific activity, effect of fragment (experimental value/control value)” value in test [1] is recorded as 1.83 ± 0.09. Moreover, the results for the “stimulation of cyclic AMP production (in words)” value in [2] and in [9] were “stimulated” and “able to stimulate cyclic AMP formation”, respectively. Also, the “Cyclic AMP, effect of fragment (experimental value/control value)” value in test [2] (40 nM, control 29 ± 5.2 pmol/mg of protein) came to 4.67 ± 0.09. For the same compound, in test [3], the “increase of CK activity (in words)” value is “maximally active”. The “[^3 H]Thymidine incorporation, effect of fragment (experimental value/control value)” value in [4] worked out at 2.06 ± 0.09. The “DNA synthesis in the diaphysis and the epiphysis at 24 h (in words)” value in test [5] is recorded as “significant increase”. Besides, in [6], the “stimulation of DNA synthesis (in words)” value is given as “maximal”. For the same compound, the “DNA synthesis in the kidney over time (in words)” value in test [7] (equivalent to 13 nM, 2 h pulses) was “no increase in DNA synthesis at any time”. Further, the “DNA synthesis in the diaphysis and the epiphysis at 4 or 16 h (in words)” value in test [7] (4 or 16 h) was “no change”. Further, the “dose of maximal effect on CK specific activity” value in test [8] amounted to 2 μg/rat. Also, in [8] (diaphysis, epiphysis, kidney), the “dose giving a significant increase in CK specific activity in all organs” value is 0.4 μg/rat.

Values taken from patent US5457092A, “Methods of promoting bone growth in mammals comprising administration of modified parathyroid hormone” (Gesellschaft fur Biotechnologische Forschung mbH (GBF), priority 1987, dated 1995).
